Assay results: ChEMBL document CHEMBL1135340, “Efficient liquid-phase synthesis of 2'-hydroxychalcones” (Bioorg Med Chem Lett, 2002)

Tested on: MCF7
Assay: Cytotoxic concentration against MCF-7 cells was determined
Assay type: functional, cell-based
Details: Homo sapiens

**Q.** O=C(/C=C/c1ccc(Br)cc1)c1ccccc1O was tested. Which IC50 did it give?
**A.** 12.3 µM
